Source: patent publication US20250197601A1, “COMPOSITION” (LMS CO., LTD., priority 2023, published 2025)

Test: Solubility of each synthesized compound in multiple solvents at room temperature
Assay type: physicochemical
Details: room temperature (about 25° C.); for Solubility in MEK: methyl ethyl ketone; for Solubility in MIBK: methyl isobutyl ketone
Method: The solubility of each compound synthesized above was evaluated. Solubility was evaluated based on the following criteria by evaluating the solubility of each compound in multiple solvents (cyclohexanone, toluene, methyl isobutyl ketone (MIBK), or methyl ethyl ketone (MEK)) at room temperature (about 25° C.).
• A: A case where the solubility is 1% by mass or more. • B: A case where the solubility is 0.5 mass % or more and less than 1 mass %. • C: A case where the solubility is 0.2 mass % or more and less than 0.5 mass %. • D: A case where solubility is less than 0.2 mass %.

Compound	Solubility in Cyclohexanone	Solubility in MEK	Solubility in MIBK	Solubility in Toluene
COc1ccc2c(c1)/C(=C/C=C(Cl)/C=C/c1cc(C(C)(C)C)[o+]c3ccc(OC)cc13)C=C(C(C)(C)C)O2 [Synthesis Example 16]	A (A case where the solubility is 1% by mass or more.)	A (A case where the solubility is 1% by mass or more.)	A (A case where the solubility is 1% by mass or more.)	A (A case where the solubility is 1% by mass or more.)
CCCCC(CC)COC(=O)Nc1cc2c(cc1C1=C([O-])/C(=c3\cc4c(cc3NC(=O)OCC(CC)CCCC)=[N+](C)C(C)C4(C)C)C1=O)C(C)(C)C(C)N2C (centres unmarked) [Synthesis Example 3]	A (A case where the solubility is 1% by mass or more.)	A (A case where the solubility is 1% by mass or more.)	A (A case where the solubility is 1% by mass or more.)	A (A case where the solubility is 1% by mass or more.)
CCCCCCCCS(=O)(=O)Nc1cc2c(cc1C1=C([O-])/C(=c3\cc4c(cc3NS(=O)(=O)CCCCCCCC)=[N+](CCCCCC)C(C)C4(C)C)C1=O)C(C)(C)C(C)N2CCCCCC (centres unmarked) [Synthesis Example 6]	A (A case where the solubility is 1% by mass or more.)	A (A case where the solubility is 1% by mass or more.)	A (A case where the solubility is 1% by mass or more.)	A (A case where the solubility is 1% by mass or more.)
CC(=O)Nc1cc2c(cc1C1=C([O-])/C(=c3\cc4c(cc3NC(C)=O)=[N+](C)C(C)C4(C)C)C1=O)C(C)(C)C(C)N2C (centres unmarked) [Synthesis Example 7]	A (A case where the solubility is 1% by mass or more.)	B (A case where the solubility is 0.5 mass % or more and less than 1 mass %.)	A (A case where the solubility is 1% by mass or more.)	B (A case where the solubility is 0.5 mass % or more and less than 1 mass %.)
CCCCC(CC)COC(=O)Nc1cc2c(cc1C1=C([O-])/C(=c3\cc4c(cc3NC(=O)OCC(CC)CCCC)=[N+](CCOC)C(C)C4(C)C)C1=O)C(C)(C)C(C)N2CCOC (centres unmarked) [Synthesis Example 2]	A (A case where the solubility is 1% by mass or more.)	A (A case where the solubility is 1% by mass or more.)	A (A case where the solubility is 1% by mass or more.)	B (A case where the solubility is 0.5 mass % or more and less than 1 mass %.)
CC(C)(C)C1=C\C(=C/C=C(Cl)/C=C/c2cc(-c3ccc(C(C)(C)C)cc3)[o+]c(C(C)(C)C)c2)C=C(c2ccc(C(C)(C)C)cc2)O1 [Synthesis Example 18]	A (A case where the solubility is 1% by mass or more.)	A (A case where the solubility is 1% by mass or more.)	A (A case where the solubility is 1% by mass or more.)	B (A case where the solubility is 0.5 mass % or more and less than 1 mass %.)
CC(C)(C)C1=C\C(=C/C=C/C=C/c2cc(-c3ccccc3)[o+]c(C(C)(C)C)c2)C=C(c2ccccc2)O1 [Synthesis Example 17]	B (A case where the solubility is 0.5 mass % or more and less than 1 mass %.)	B (A case where the solubility is 0.5 mass % or more and less than 1 mass %.)	A (A case where the solubility is 1% by mass or more.)	B (A case where the solubility is 0.5 mass % or more and less than 1 mass %.)
CCCCCCN1c2cc(NC(=O)C(CC)CCCC)c(C3=C([O-])/C(=c4\cc5c(cc4NC(=O)C(CC)CCCC)=[N+](CCCCCC)C(C)C5(C)C)C3=O)cc2C(C)(C)C1C (centres unmarked) [Synthesis Example 5]	A (A case where the solubility is 1% by mass or more.)	A (A case where the solubility is 1% by mass or more.)	A (A case where the solubility is 1% by mass or more.)	A (A case where the solubility is 1% by mass or more.)
CCCCCCN1c2cc(NC(C)=O)c(C3=C([O-])/C(=c4\cc5c(cc4NC(C)=O)=[N+](CCCCCC)C(C)C5(C)C)C3=O)cc2C(C)(C)C1C (centres unmarked) [Synthesis Example 4]	A (A case where the solubility is 1% by mass or more.)	A (A case where the solubility is 1% by mass or more.)	A (A case where the solubility is 1% by mass or more.)	B (A case where the solubility is 0.5 mass % or more and less than 1 mass %.)
Cc1ccc2c(c1)/C(=C/C=C/C=C/c1cc(C(C)(C)C)[o+]c3ccc(C)cc13)C=C(C(C)(C)C)O2 [Synthesis Example 14]	A (A case where the solubility is 1% by mass or more.)	A (A case where the solubility is 1% by mass or more.)	A (A case where the solubility is 1% by mass or more.)	A (A case where the solubility is 1% by mass or more.)
C/C(C1=Nc2ccc3ccccc3c2C1(C)C)=C1/C(=O)C(C(/C)=C2/Nc3ccc4ccccc4c3C2(C)C)=C1O [Synthesis Example 12]	B (A case where the solubility is 0.5 mass % or more and less than 1 mass %.)	C (A case where the solubility is 0.2 mass % or more and less than 0.5 mass %.)	B (A case where the solubility is 0.5 mass % or more and less than 1 mass %.)	C (A case where the solubility is 0.2 mass % or more and less than 0.5 mass %.)
CC(C)(C)C1=C\C(=C/C=C/C=C/c2cc(C(C)(C)C)[o+]c3ccccc23)c2ccccc2O1 [Synthesis Example 13]	A (A case where the solubility is 1% by mass or more.)	A (A case where the solubility is 1% by mass or more.)	A (A case where the solubility is 1% by mass or more.)	B (A case where the solubility is 0.5 mass % or more and less than 1 mass %.)
CCOC(=O)Nc1cc2c(cc1C1=C([O-])/C(=c3\cc4c(cc3NC(=O)OCC)=[N+](CCOC)C(C)C4(C)C)C1=O)C(C)(C)C(C)N2CCOC (centres unmarked) [Synthesis Example 1]	A (A case where the solubility is 1% by mass or more.)	A (A case where the solubility is 1% by mass or more.)	A (A case where the solubility is 1% by mass or more.)	B (A case where the solubility is 0.5 mass % or more and less than 1 mass %.)
CC(C)(C)C1=C\C(=C/C=C(Cl)/C=C/c2cc(C(C)(C)C)[o+]c3ccccc23)c2ccccc2O1 [Synthesis Example 15]	A (A case where the solubility is 1% by mass or more.)	A (A case where the solubility is 1% by mass or more.)	A (A case where the solubility is 1% by mass or more.)	B (A case where the solubility is 0.5 mass % or more and less than 1 mass %.)
